Marks after values point to notes of the source that are not given here.
Assays:
[1] = test system: fresh primary mouse hepatocytes; test: Primary mouse hepatocyte assay (lactate production); assay type: cell-based
Description: Compounds were evaluated in an ex vivo assay consisting of fresh primary mouse hepatocytes. Hepatocytes were isolated from wild type mice (C57BL/6NCrl from Charles River Labs) using a two-step collagenase perfusion technique which involves a sequential perfusion of anesthetized mice with Hanks' balanced salt solution and collagenase. Following isolation, viable wild type hepatocytes (0.1 M cells/well) were incubated with test compound in presence of pyruvate and compound potency was evaluated by measuring the lactate produced by the cells using liquid chromatography coupled to mass spectrometry. Chromatographic separation was achieved on an XDB-C18 4.6×50 mm column (Agilent, Cat #927975-902) at a flow rate of 1 mL/min Mobile phase A consisted of 0.1% formic acid in water and mobile phase B consisted of acetonitrile. A gradient program was initiated starting at 5% B which was held for 1 minutes, then ramped from 5% to 95% B over 1 minute. After holding at 95% B for 1 minute, the program changed back to 5% B. The column was equilibrated with 5% B for […] before the next injection. The mass spectrometer was operated in negative mode with electrospray ionization. The following transition along with their collision energy (CE) were used: 89→43 (CE: −16 V) for lactate and 92→45 (CE: −16 V) for ^13C3-Lactate (internal standard).

[2] = Liver and plasma concentrations in c57/bl6 mice; assay type: in vivo; details: 20 mg/kg PO
Description: [The procedure below names another organism; the source says it served here with some conditions changed.] (§1) Plasma and liver (target organ) concentrations of test compounds were determined in rats following a single per os (PO) administration of the test compounds. Male Sprague Dawley rats (6-8 weeks of age, Charles River Labs) were fasted overnight and a single dose of test compounds (10 mg/kg; as a suspension in 0.5% methyl cellulose) was administered by PO gavage. Rats were then sacrificed at 4 and 24 h after administration of the test compounds, and plasma and liver tissue samples were collected. Liver tissue samples were homogenized in 5 volumes of water:acetonitrile (50/50; v/v) mixture using a bead mill homogenizer. Plasma and liver homogenate samples were processed by protein precipitation using acetonitrile and the concentrations of the test compounds were determined by liquid chromatography-tandem mass spectrometry (SciEx triple quad 5500+ with Exion UPLC).
(§2) Liver and plasma exposures at the 4 h and 24 h timepoints for the various compounds are described in Table 5 below. Measured compound concentrations are as follows: ++++>10 μM; 10 μM≥+++>5 μM; 5 μM≥++>1 μM; 1 μM≥+>0.25 μM; and 0.25 μM≥−.

[3] = biological target: T1, human recombinant C-terminal His-tagged LDHA (Homo sapiens, UniProt P00338); test: Human LDHA enzyme assay; assay type: biochemical; details: 50 μM pyruvate, 50 μM NADH, no HSA
T1 construct: His (C)
Description: (§3) Compounds were dissolved in DMSO and preincubated with human recombinant C-terminal His-tagged LDHA (0.070 μg/mL) for 10 min at room temperature in assay buffer consisting 50 mM Tris, pH 7.5 and 100 mM NaCl in black walled, clear bottom, non-binding 96-well plates. Equal volumes of substrate solution containing 100 μM of pyruvate and 100 μM of NADH in assay buffer was added to each well (final concentration 0.035 μg/mL enzyme, 50 μM pyruvate, 50 μM NADH, and 1% DMSO). For human serum albumin (HSA) shift assay, the compounds were preincubated with the enzyme in assay buffer containing 20% HSA before substrate addition (final concentration 10% HSA). The reaction was monitored at 340 nm on a plate reader (Molecular Devices) in kinetic mode for 15 min. The rate of the reaction was determined by plotting absorbance vs time.

[4] = biological target: T1, human recombinant C-terminal His-tagged LDHA; test: Human LDHA enzyme assay, human serum albumin (HSA) shift; assay type: biochemical; details: final concentration 10% HSA
Description: as §3

[5] = Liver-targeted tissue distribution profile study in rats; assay type: in vivo, Sprague Dawley rats; details: rat, single 10 mg/kg PO
Description: as §1, §2

[6] = Run at 0.4M cells/well concentration of hepatocytes

| SMILES | IC50 [1, 6] | Measured Compound Concentrations Liver - 4 h [2] | Measured Compound Concentrations Liver - 24 h [2] | Measured Compound Concentrations Plasma - 4 h [2] | Measured Compound Concentrations Plasma - 24 h [2] | IC50 [3] | IC50 [4] | IC50 ([1]; 0.1 M cells/well) | Measured Compound Concentrations Liver - 4 h [5] | Measured Compound Concentrations Liver - 24 h [5] | Measured Compound Concentrations Plasma - 4 h [5] | Measured Compound Concentrations Plasma - 24 h [5] |
| --- | --- | --- | --- | --- | --- | --- | --- | --- | --- | --- | --- | --- |
| NS(=O)(=O)c1ccc(Cc2c(-c3ccc(F)c(OC(F)F)c3)nn(-c3nc(C(=O)O)cs3)c2CC2CC2)cc1F [Example 13, 2-(5-(cyclopropylmethyl)-3-(3-(difluoromethoxy)-4-fluorophenyl)-4-(3-fluoro-4-sulfamoylbenzyl)-1H-pyrazol-1-yl)thiazole-4-carboxylic acid] | 250 to 1000 nM | ++* (5 μM≥++>1 μM) | −* (0.25 μM≥−) | −* (0.25 μM≥−) | −* (0.25 μM≥−) | < 1 nM | 1 to 10 nM |  |  |  |  |  |
| CC(C)Oc1cc(-c2nn(-c3nc(C(=O)O)cs3)c(CC3CC3)c2Cc2ccc(S(N)(=O)=O)c(F)c2)ccc1F [Example 7, 2-(5-(Cyclopropylmethyl)-3-(4-fluoro-3-isopropoxyphenyl)-4-(3-fluoro-4-sulfamoylbenzyl)-1H-pyrazol-1-yl)thiazole-4-carboxylic acid] | 250 to 1000 nM | ++* (5 μM≥++>1 μM) |  | −* (0.25 μM≥−) |  | < 1 nM | 1 to 10 nM |  |  |  |  |  |
| NS(=O)(=O)c1ccc(Cc2c(-c3ccc(F)cc3)nn(-c3nc(C(=O)O)cs3)c2CC2CC2)cc1Cl [Example 10, 2-(4-(3-Chloro-4-sulfamoylbenzyl)-5-(cyclopropylmethyl)-3-(4-fluorophenyl)-1H-pyrazol-1-yl)thiazole-4-carboxylic acid] |  | +++* (10 μM≥+++>5 μM) | −* (0.25 μM≥−) | −* (0.25 μM≥−) | −* (0.25 μM≥−) | < 1 nM | 10 to 100 nM | 100 to 250 nM |  |  |  |  |
| Cc1c(Cc2ccc(S(N)(=O)=O)c(F)c2)c(-c2ccc(F)cc2)nn1-c1nc(C(=O)O)cs1 [Example 3, 2-(4-(3-Fluoro-4-sulfamoylbenzyl)-3-(4-fluorophenyl)-5-methyl-1H-pyrazol-1-yl)thiazole-4-carboxylic acid] | 250 to 1000 nM | ++++* (++++>10 μM) |  | −* (0.25 μM≥−) |  | < 1 nM | 1 to 10 nM |  |  |  |  |  |
| NS(=O)(=O)c1ccc(Cc2c(-c3ccc(F)cc3)nn(-c3nc(C(=O)O)cs3)c2CC2CC2)cc1 [Example 5, 2-(5-(cyclopropylmethyl)-3-(4-fluorophenyl)-4-(4-sulfamoylbenzyl)-1H-pyrazol-1-yl)thiazole-4-carboxylic acid] | 250 to 1000 nM | ++* (5 μM≥++>1 μM) |  | −* (0.25 μM≥−) |  | < 1 nM | 1 to 10 nM |  |  |  |  |  |
| N#Cc1cc(-c2nn(-c3nc(C(=O)O)cs3)c(CC3CC3)c2Cc2ccc(S(N)(=O)=O)c(F)c2)ccc1F [Example 2, 2-(3-(3-Cyano-4-fluorophenyl)-5-(cyclopropylmethyl)-4-(3-fluoro-4-sulfamoylbenzyl)-1H-pyrazol-1-yl)thiazole-4-carboxylic acid] |  |  |  |  |  | < 1 nM | 1 to 10 nM | < 100 nM | +++ (10 μM≥+++>5 μM) | − (0.25 μM≥−) | − (0.25 μM≥−) | − (0.25 μM≥−) |
| NS(=O)(=O)c1ccc(Cc2c(-c3ccc(F)c(Cl)c3)nn(-c3nc(C(=O)O)cs3)c2CC2CC2)cc1F [Example 8, 2-(3-(3-Chloro-4-fluorophenyl)-5-(cyclopropylmethyl)-4-(3-fluoro-4-sulfamoylbenzyl)-1H-pyrazol-1-yl)thiazole-4-carboxylic acid] | 100 to 250 nM |  |  |  |  | < 1 nM | 1 to 10 nM |  | +++ (10 μM≥+++>5 μM) | − (0.25 μM≥−) | − (0.25 μM≥−) | − (0.25 μM≥−) |
| NS(=O)(=O)c1ccc(Cc2c(-c3cccc(OCC(F)(F)F)c3)nn(-c3nc(C(=O)O)cs3)c2CC2CC2)cc1F [Example 22, 2-(5-(cyclopropylmethyl)-4-(3-fluoro-4-sulfamoylbenzyl)-3-(3-(2,2,2-trifluoroethoxy)phenyl)-1H-pyrazol-1-yl)thiazole-4-carboxylic acid] |  |  |  |  |  | < 1 nM | 1 to 10 nM | < 100 nM | ++ (5 μM≥++>1 μM) | − (0.25 μM≥−) | − (0.25 μM≥−) | − (0.25 μM≥−) |
| CCc1c(Cc2ccc(S(N)(=O)=O)cc2)c(-c2ccc(F)cc2)nn1-c1nc(C(=O)O)cs1 [Example 4, 2-(5-ethyl-3-(4-fluorophenyl)-4-(4-sulfamoylbenzyl)-1H-pyrazol-1-yl)thiazole-4-carboxylic acid] | 250 to 1000 nM | ++* (5 μM≥++>1 μM) |  | −* (0.25 μM≥−) |  | 1 to 10 nM | 10 to 100 nM |  |  |  |  |  |
| NS(=O)(=O)c1ccc(Cc2c(-c3cccc(C(F)(F)F)c3)nn(-c3nc(C(=O)O)cs3)c2CC2CC2)cc1F [Example 18, 2-(5-(cyclopropylmethyl)-4-(3-fluoro-4-sulfamoylbenzyl)-3-(3-(trifluoromethyl)phenyl)-1H-pyrazol-1-yl)thiazole-4-carboxylic acid] |  |  |  |  |  | < 1 nM | 1 to 10 nM | < 100 nM | +++ (10 μM≥+++>5 μM) | − (0.25 μM≥−) | − (0.25 μM≥−) | − (0.25 μM≥−) |
| NS(=O)(=O)c1ccc(Cc2c(-c3ccc(C(F)F)cc3)nn(-c3nc(C(=O)O)cs3)c2CC2CC2)cc1F [Example 21, 2-(5-(cyclopropylmethyl)-3-(4-(difluoromethyl)phenyl)-4-(3-fluoro-4-sulfamoylbenzyl)-1H-pyrazol-1-yl)thiazole-4-carboxylic acid] |  |  |  |  |  | < 1 nM | 10 to 100 nM | < 100 nM | ++ (5 μM≥++>1 μM) | − (0.25 μM≥−) | − (0.25 μM≥−) | − (0.25 μM≥−) |
| NS(=O)(=O)c1ccc(Cc2c(-c3cccc(OC(F)(F)F)c3)nn(-c3nc(C(=O)O)cs3)c2CC2CC2)cc1F [Example 19, 2-(5-(cyclopropylmethyl)-4-(3-fluoro-4-sulfamoylbenzyl)-3-(3-(trifluoromethoxy)phenyl)-1H-pyrazol-1-yl)thiazole-4-carboxylic acid] |  |  |  |  |  | < 1 nM | 1 to 10 nM | 100 to 250 nM | +++ (10 μM≥+++>5 μM) | − (0.25 μM≥−) | − (0.25 μM≥−) | − (0.25 μM≥−) |
| N#Cc1cccc(-c2nn(-c3nc(C(=O)O)cs3)c(CC3CC3)c2Cc2ccc(S(N)(=O)=O)c(F)c2)c1 [Example 11, 2-(3-(3-cyanophenyl)-5-(cyclopropylmethyl)-4-(3-fluoro-4-sulfamoylbenzyl)-1H-pyrazol-1-yl)thiazole-4-carboxylic acid] |  |  |  |  |  | < 1 nM | 1 to 10 nM | < 100 nM | +++ (10 μM≥+++>5 μM) | − (0.25 μM≥−) | − (0.25 μM≥−) | − (0.25 μM≥−) |

Reference: patent publication US20230183228A1, “SUBSTITUTED PYRAZOLYL COMPOUNDS AND METHODS OF USE THEREOF” (Chinook Therapeutics Canada, Inc., priority 2020, published 2023)
